This is an account of results in PMC13539321 (Journal of Advanced Research, 2025).

The term IC50 denotes the concentration that inhibits the measured activity by half. Higher therefore signals weaker potency.

Where only a bound is given, the exact number is not on record here.

The test addresses Mushroom TYR (EC 1.14.18.1) (Agaricus bisporus, UniProt C7FF04). As to the kind of experiment: biochemical. The note with it: IC50 value ± SD.
[1] abbreviates: L-dopa, substrate L-dopa (diphenolase), n = 3, screening of de novo generated compounds (Table 1).
Where [2] appears, read: L-tyrosine, substrate L-tyrosine (monophenolase), n = 3, screening of de novo generated compounds (Table 1).

Mushroom TYR (EC 1.14.18.1), sequence (C7FF04 1-392 limits assumed): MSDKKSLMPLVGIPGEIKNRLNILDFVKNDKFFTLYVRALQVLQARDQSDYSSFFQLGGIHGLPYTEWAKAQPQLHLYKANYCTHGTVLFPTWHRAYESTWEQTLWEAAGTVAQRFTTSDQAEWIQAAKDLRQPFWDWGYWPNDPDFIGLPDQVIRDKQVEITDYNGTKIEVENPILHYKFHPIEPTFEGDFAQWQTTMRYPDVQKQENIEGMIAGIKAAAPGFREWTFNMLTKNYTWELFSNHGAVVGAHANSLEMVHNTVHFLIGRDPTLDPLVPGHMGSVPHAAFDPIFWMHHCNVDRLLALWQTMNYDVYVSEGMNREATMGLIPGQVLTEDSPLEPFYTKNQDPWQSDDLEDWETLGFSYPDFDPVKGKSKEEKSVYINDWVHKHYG

On to `O=C(CCc1ccccc1O)N1CCN(Cc2ccc(F)cc2)CC1` [Compound V-3, 1-(4-(4-fluorobenzyl)piperazin-1-yl)-3-(2-hydroxyphenyl)propan-1-one], for which the IC50 was determined as 66.1 ± 4.6 µM (L-dopa) and 60.6 ± 4.5 µM (L-tyrosine).

As for `O=C(CCc1cccc(O)c1)NCCNCc1ccc(F)cc1` [Compound V-8, N-(2-((4-fluorobenzyl)amino)ethyl)-3-(3-hydroxyphenyl)propanamide], the concentration for half-maximal inhibition (IC50) reads like this: (L-dopa) above 800 µM; (L-tyrosine) 298 ± 16.6 µM.

As for `O=C(NCCc1cccc(O)c1)c1cccc2ncccc12` [VIII, N-(3-hydroxyphenethyl)quinoline-5-carboxamide], the half-inhibitory concentration (IC50) reads like this: under setting [1], above 800 µM; under setting [2], above 800 µM.

With `COc1ccc(CN2CCN(C(=O)CCc3cccc(O)c3)CC2)cc1` [Compound V-13, 3-(3-hydroxyphenyl)-1-(4-(4-methoxybenzyl)piperazin-1-yl)propan-1-one], the IC50 runs as follows: (L-dopa) 103 ± 5.6 µM; (L-tyrosine) 132 ± 5.4 µM.

`O=C(CCc1ccc(O)cc1O)N1CCN(Cc2cccc(Cl)c2)CC1` [Compound V-29, 1-(4-(3-chlorobenzyl)piperazin-1-yl)-3-(2,4-dihydroxyphenyl)propan-1-one] returned an IC50 (L-dopa) of 0.189 ± 0.005 µM and an IC50 (L-tyrosine) of 0.216 ± 0.019 µM.

On to `O=C(CCc1ccc(O)cc1)N1CCN(Cc2ccc(F)cc2)CC1` [Compound V-4, 1-(4-(4-fluorobenzyl)piperazin-1-yl)-3-(4-hydroxyphenyl)propan-1-one], for which the concentration for half-maximal inhibition (IC50) was 26.1 ± 4.6 µM (L-dopa) and 2.9 ± 0.1 µM (L-tyrosine).

On to `N#Cc1ccc(CN2CCN(C(=O)CCc3cccc(O)c3)CC2)cc1` [Compound V-14, 4-((4-(3-(3-hydroxyphenyl)propanoyl)piperazin-1-yl)methyl)benzonitrile], for which the concentration for half-maximal inhibition (IC50) reads like this: (L-dopa) 72.6 ± 3.1 µM; (L-tyrosine) 83.2 ± 3.2 µM.

`N#Cc1ccc(CN2CCN(C(=O)CCc3ccc(O)cc3O)CC2)cc1` [Compound V-33, 4-((4-(3-(2,4-dihydroxyphenyl)propanoyl)piperazin-1-yl)methyl)benzonitrile] had an IC50 (L-dopa) of 0.237 ± 0.011 µM and a half-inhibitory concentration (IC50) (L-tyrosine) of 0.299 ± 0.007 µM.

On to `COc1ccc(CN2CCN(C(=O)/C=C/c3ccc(O)cc3O)CC2)cc1` [Compound V-26, (E)-3-(2,4-dihydroxyphenyl)-1-(4-(4-methoxybenzyl)piperazin-1-yl)prop-2-en-1-one], for which the IC50 is 0.02 ± 0.002 µM (L-dopa) and 0.023 ± 0.002 µM (L-tyrosine).

For `CCOc1ccc(CN2CCN(C(=O)/C=C/c3ccc(O)cc3O)CC2)cc1` [Compound V-28, (E)-3-(2,4-dihydroxyphenyl)-1-(4-(4-ethoxybenzyl)piperazin-1-yl)prop-2-en-1-one], the IC50 by setting is: (L-dopa) 0.019 ± 0.0002 µM; (L-tyrosine) 0.021 ± 0.001 µM.

Regarding `Cc1ccc(CN2CCN(C(=O)CCc3cccc(O)c3)CC2)cc1` [Compound V-11, 3-(3-hydroxyphenyl)-1-(4-(4-methylbenzyl)piperazin-1-yl)propan-1-one], the 50% inhibitory concentration (IC50) (L-dopa) was above 400 µM and the midpoint of inhibition (L-tyrosine), the IC50, lay at 20.1 ± 0.7 µM.

Consider `N#Cc1ccc(CN2CCN(C(=O)/C=C/c3ccc(O)cc3O)CC2)cc1` [Compound V-34, (E)-4-((4-(3-(2,4-dihydroxyphenyl)acryloyl)piperazin-1-yl)methyl)benzonitrile], for which half-maximal inhibition (L-dopa) (IC50) required 0.032 ± 0.004 µM and the 50% inhibitory concentration (IC50) (L-tyrosine) stood at 0.041 ± 0.005 µM.

As to `O=C(CCc1cccc(O)c1)N1CCN(C/C=C/c2ccc(F)cc2)CC1` [Compound V-15, (E)-1-(4-(3-(4-fluorophenyl)allyl)piperazin-1-yl)-3-(3-hydroxyphenyl)propan-1-one], the IC50 amounted to 140 ± 15.6 µM (L-dopa) and 41.8 ± 3.2 µM (L-tyrosine).

Take `O=C(CCc1cccc(O)c1)N1CCCN(Cc2ccc(F)cc2)CC1` [Compound V-6, 1-(4-(4-fluorobenzyl)-1,4-diazepan-1-yl)-3-(3-hydroxyphenyl)propan-1-one]: the IC50 runs as follows: (L-dopa) 296 ± 7.9 µM; (L-tyrosine) 88.9 ± 2.9 µM.

`O=C(/C=C/c1ccc(O)cc1O)N1CCN(Cc2ccc(Cl)cc2)CC1` [Compound V-32, (E)-1-(4-(4-chlorobenzyl)piperazin-1-yl)-3-(2,4-dihydroxyphenyl)prop-2-en-1-one] yielded a concentration for half-maximal inhibition (IC50) (L-dopa) of 0.021 ± 0.002 µM and a half-maximal inhibitory concentration (IC50) (L-tyrosine) of 0.024 ± 0.002 µM.

Consider `O=C(CCc1cccc(O)c1)N1CCN(Cc2ccco2)CC1` [Compound V-17, 1-(4-(furan-2-ylmethyl)piperazin-1-yl)-3-(3-hydroxyphenyl)propan-1-one], for which the IC50 (L-dopa) is above 800 µM and the IC50 (L-tyrosine) was above 600 µM.

On to `O=C(c1cccc(OCc2ccccc2)c1)N1CCN(c2ccc(O)cc2)CC1` [XV, (3-(benzyloxy)phenyl)(4-(4-hydroxyphenyl)piperazin-1-yl)methanone], for which the half-inhibitory concentration (IC50) by setting is: under setting [1], above 800 µM; under setting [2], above 800 µM.

Take `O=C(CCc1cccc(O)c1)N1CCN(Cc2cccc(Cl)c2)CC1` [Compound V-10, 1-(4-(3-chlorobenzyl)piperazin-1-yl)-3-(3-hydroxyphenyl)propan-1-one]: the IC50 is, setting by setting: (L-dopa) 19 ± 2.2 µM; (L-tyrosine) 7.4 ± 0.4 µM.

For the compound `O=C(O)c1ccc(CN2CCC(C(=O)c3ccccc3)CC2)cc1` [IX, 4-((4-benzoylpiperidin-1-yl)methyl)benzoic acid], the IC50 is above 800 µM under setting [1] and above 800 µM under setting [2].

Consider `O=C(/C=C/c1ccc(O)cc1O)N1CCN(Cc2cccc(Cl)c2)CC1` [Compound V-30, (E)-1-(4-(3-chlorobenzyl)piperazin-1-yl)-3-(2,4-dihydroxyphenyl)prop-2-en-1-one], for which the IC50 is 0.022 ± 0.001 µM (L-dopa) and 0.021 ± 0.0003 µM (L-tyrosine).

With `O=C(NCc1ccc(F)cc1)c1cc(O)nc2ccccc12` [VI, N-(4-fluorobenzyl)-2-hydroxyquinoline-4-carboxamide], the IC50 was above 800 µM under setting [1] and above 800 µM under setting [2].

On to `Cc1nc2cc(C(=O)N3CCCN(Cc4ccccc4)CC3)ccc2[nH]1` [XIV, (4-benzyl-1,4-diazepan-1-yl)(2-methyl-1H-benzo[d]imidazol-5-yl)methanone], for which the IC50 by setting is: under setting [1], above 800 µM; under setting [2], 449 ± 36.1 µM.

On to `COc1cccc(/C=C/C(=O)Nc2n[nH]c3ccccc23)c1` [VII, (E)-N-(1H-indazol-3-yl)-3-(3-methoxyphenyl)acrylamide], for which the IC50 runs as follows: under setting [1], above 800 µM; under setting [2], above 800 µM.

Compound `O=C(CCc1cccc(O)c1)N1CCN(Cc2cccs2)CC1` [Compound V-18, 3-(3-hydroxyphenyl)-1-(4-(thiophen-2-ylmethyl)piperazin-1-yl)propan-1-one] came in with an IC50 (L-dopa) above 800 µM and an IC50 (L-tyrosine) above 300 µM.

As for `O=C(/C=C/c1ccccc1)N1CCN(c2cccc(O)c2)CC1` [XII, (E)-1-(4-(3-hydroxyphenyl)piperazin-1-yl)-3-phenylprop-2-en-1-one], the IC50 was found to be 199 ± 22.7 µM under setting [1] and 35.9 ± 1.2 µM under setting [2].

On to `O=C(CCc1cccc(O)c1)N1CCN(Cc2cccc(F)c2)CC1` [Compound V-2, 1-(4-(3-fluorobenzyl)piperazin-1-yl)-3-(3-hydroxyphenyl)propan-1-one], for which the half-inhibitory concentration (IC50) reads like this: (L-dopa) above 400 µM; (L-tyrosine) 295 ± 24.2 µM.

As for `O=C(CCc1cccc(O)c1)N1CC2CN(Cc3ccc(F)cc3)CC2C1` (stereo not shown) [Compound V-7, 1-(5-(4-fluorobenzyl)hexahydropyrrolo[3,4-c]pyrrol-2(1H)-yl)-3-(3-hydroxyphenyl)propan-1-one], the half-maximal inhibitory concentration (IC50) reads like this: (L-dopa) 119 ± 5.2 µM; (L-tyrosine) 25.8 ± 1.1 µM.

On to `CCc1ccc(CN2CCN(C(=O)CCc3cccc(O)c3)CC2)cc1` [Compound V-12, 1-(4-(4-ethylbenzyl)piperazin-1-yl)-3-(3-hydroxyphenyl)propan-1-one], for which the IC50 by setting is: (L-dopa) above 800 µM; (L-tyrosine) above 800 µM.

Consider `O=C(CCc1ccc(O)cc1O)N1CCN(Cc2ccc(Cl)cc2)CC1` [Compound V-31, 1-(4-(4-chlorobenzyl)piperazin-1-yl)-3-(2,4-dihydroxyphenyl)propan-1-one], for which the IC50 reads like this: (L-dopa) 0.153 ± 0.011 µM; (L-tyrosine) 0.187 ± 0.003 µM.

Turning to `O=C(CCc1cccc(O)c1)N1CCN(CCc2ccccc2)CC1` [Compound V-16, 3-(3-hydroxyphenyl)-1-(4-phenethylpiperazin-1-yl)propan-1-one], the IC50 is above 800 µM (L-dopa) and above 300 µM (L-tyrosine).

Regarding `O=C(CCc1cccc(O)c1)N1CCN(Cc2ccccn2)CC1` [Compound V-19, 3-(3-hydroxyphenyl)-1-(4-(pyridin-2-ylmethyl)piperazin-1-yl)propan-1-one], the IC50 by setting is: (L-dopa) above 800 µM; (L-tyrosine) above 600 µM.

As to `COc1ccc(CN2CCN(C(=O)CCc3ccc(O)cc3O)CC2)cc1` [Compound V-25, 3-(2,4-dihydroxyphenyl)-1-(4-(4-methoxybenzyl)piperazin-1-yl)propan-1-one], the IC50 (L-dopa) came out at 0.147 ± 0.013 µM and the IC50 (L-tyrosine) was determined as 0.165 ± 0.008 µM.

With `Cc1ccccc1CNC(=O)CCc1cccc(O)c1` [X, 3-(3-hydroxyphenyl)-N-(2-methylbenzyl)propanamide], the IC50 was 462 ± 50.4 µM under setting [1] and 60.9 ± 1.9 µM under setting [2].

As for `O=C(CCc1cc(O)cc(O)c1)N1CCN(Cc2ccc(F)cc2)CC1` [Compound V-20, 3-(3,5-dihydroxyphenyl)-1-(4-(4-fluorobenzyl)piperazin-1-yl)propan-1-one], the IC50 (L-dopa) stood at 21.3 ± 0.8 µM and the IC50 (L-tyrosine) was 9.1 ± 0.6 µM.

Regarding `Cc1ccc(CN2CCN(C(=O)CCc3ccc(O)cc3O)CC2)cc1` [Compound V-23, 3-(2,4-dihydroxyphenyl)-1-(4-(4-methylbenzyl)piperazin-1-yl)propan-1-one], the IC50 reads like this: (L-dopa) 0.134 ± 0.008 µM; (L-tyrosine) 0.183 ± 0.013 µM.

For the compound `O=C(CCc1cccc(O)c1)NCCCNCc1ccc(F)cc1` [Compound V-9, N-(3-((4-fluorobenzyl)amino)propyl)-3-(3-hydroxyphenyl)propanamide], the IC50 was above 800 µM (L-dopa) and 328 ± 4.9 µM (L-tyrosine).

Regarding `O=C(C=Cc1ccccc1)NCCc1cccc(O)c1` [XI, N-(3-hydroxyphenethyl)cinnamamide], the half-maximal inhibitory concentration (IC50) by setting is: under setting [1], above 800 µM; under setting [2], 622 ± 82.8 µM.

`Cc1nc2ccc(C(=O)NCc3ccc(O)cc3)cc2[nH]1` [XIII, N-(4-hydroxybenzyl)-2-methyl-1H-benzo[d]imidazole-6-carboxamide]: the concentration for half-maximal inhibition (IC50) is above 800 µM under setting [1] and 99.7 ± 15.3 µM under setting [2].
